The nature of this data set: Polymorphic stability on exposure to ambient humidity, checked by PXRD. The data set is classed as physicochemical. As to conditions: exposure to ambient humidity for a period of 10 days. An excerpt: High yield of amorphous form of rifaximin is isolated by the processes of the present invention and it has high chemical purity and retains acceptable amounts of residual solvents.

For the compound `CO[C@H]1/C=C/O[C@@]2(C)Oc3c(C)c(O)c4c(O)c(c5c(nc6cc(C)ccn65)c4c3C2=O)NC(=O)/C(C)=C\C=C\[C@H](C)[C@H](O)[C@@H](C)[C@@H](O)[C@@H](C)[C@H](OC(C)=O)[C@@H]1C` [amorphous form of rifaximin, (2S,16Z,18E,20S,21S,22R,23R,24R,25S,26S,27S,28E)-5,6,21,23,25-pentahydroxy-27-methoxy-2,4,11,16,20,22,24,26-octamethyl-2,7-(epoxypentadeca-[1,11,13]trienimino)benzofuro[4,5-e]pyrido[1,2-α]-benzimidazole-1,15(2H)-dione,25-acetate], the “polymorphic form after exposure to ambient humidity, as indicated by PXRD spectroscopy” value is given as “did not change the polymorphic form”.

(Values after patent US7709634B2, “Amorphous form of rifaximin and processes for its preparation” (Apotex PharmAchem Inc., priority 2007, dated 2010).)
